test system: rabbit skeletal muscle myofibril preparations (approximately 90% fast fibers); experiment: Activation of fast skeletal muscle fibers: enzymatic activity of myofibril preparations (PUMA assay system); assay type: biochemical; design: unit not given here; details: detergent treated myofibrils at pCa25%, 500 μM ATP; cells marked †: Mean value
Summary of the method: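 Detergent-skinned, homogenized rabbit skeletal myofibrils (~90% fast fibers) were run at the calcium level giving 25% of maximal rate (pCa25%). Incubation used 500 μM ATP and 40 μM compound, with a kinetic UV absorbance read. Data were normalized to control wells; hits raised the rate by >40% at 40 μM.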

Question: For `CC[C@H](COC(C)=O)c1nc2nc(O)[nH]c2c(-c2ccc(F)cc2)c1Cl` [(2S)-2-[6-chloro-7-(4-fluorophenyl)-2-hydroxyimidazo[4,5-b]pyridinyl]butyl acetate], which “AC1.4 Median” value is on record?
Answer: 0.234†

same assay, conditions: detergent treated myofibrils at pCa25%, 500 μM ATP; median value (no †)

Question: `CC[C@H](COP(=O)(O)O)c1nc2nc(O)[nH]c2c(-c2ccc(F)cc2)c1Cl` [(2S)-2-[6-chloro-7-(4-fluorophenyl)-2-hydroxyimidazo[4,5-b]pyridinyl]butyl dihydrogen phosphate] was tested. Which “AC1.4 Median” value did it give?
Answer: 31.644

Question: Which “AC1.4 Median” value does the source give for `CC[C@H](COC(=O)[C@@H](N)C(C)C)c1nc2nc(O)[nH]c2c(-c2ccc(F)c(F)c2)c1Cl` [(2S)-2-[7-(3,4-difluorophenyl)-6-chloro-2-hydroxyimidazo[4,5-b]pyridinyl]butyl (2S)-2-amino-3-methylbutanoate] here?
Answer: 6.640

Question: `CC[C@H](CNC(C)=O)c1nc2nc(O)[nH]c2c(-c2ccc(F)cc2)c1Cl` [N-{(2R)-2-[6-chloro-7-(4-fluorophenyl)-2-hydroxyimidazo[4,5-b]pyridinyl]butyl}acetamide] was tested. Which “AC1.4 Median” value did it give?
Answer: 15.6039

Question: Which “AC1.4 Median” value does the source give for `CC[C@@H](CNC(C)=O)c1nc2nc(O)[nH]c2c(-c2ccc(F)cc2)c1Cl` [N-{(2S)-2-[6-chloro-7-(4-fluorophenyl)-2-hydroxyimidazo[4,5-b]pyridinyl]butyl}acetamide] here?
Answer: 8.4925

Question: Which “AC1.4 Median” value does the source give for “(tert-butoxy)-N-{4-[6-chloro-1-(ethylpropyl)-2-hydroxyimidazo[4,5-b]pyridin-7-yl]phenyl}-N-methylcarboxamide” here?
Answer: 42.343

Question: For “N-{4-[6-chloro-1-(ethylpropyl)-2-hydroxyimidazo[4,5-b]pyridin-7-yl]phenyl}acetamide”, which “AC1.4 Median” value is on record?
Answer: 28.930

Question: How did the “AC1.4 Median” value turn out when “methyl 3-[6-chloro-1-(ethylpropyl)-2-hydroxyimidazo[4,5-b]pyridin-7-yl]benzoate” was run?
Answer: 9.682

Question: With “{3-[6-chloro-1-(ethylpropyl)-2-hydroxyimidazo[4,5-b]pyridin-7-yl]phenyl}-N,N-dimethylcarboxamide” as the compound, how does the “AC1.4 Median” value read?
Answer: 21.245

Question: For “{4-[6-chloro-1-(ethylpropyl)-2-hydroxyimidazo[4,5-b]pyridin-7-yl]phenyl}(methylsulfonyl)amine”, which “AC1.4 Median” value is on record?
Answer: 26.368
